The nature of the assay: Binding affinity for endothelin B receptor by measuring its ability to displace [125I]-ET-3 from porcine cerebellar tissue.

The IC50 is the concentration at which inhibition is half-maximal. Molecule `CCCCN(CCCC)C(=O)CN1C[C@H](c2ccc3c(c2)OCO3)[C@@H](C(=O)O)[C@@H]1CCC1OCCCO1` [(2S,3R,4S)-4-Benzo[1,3]dioxol-5-yl-1-dibutylcarbamoylmethyl-2-(2-[1,3]dioxan-2-yl-ethyl)-pyrrolidine-3-carboxylic acid] returned an IC50 of 62 µM.

`CCCCN(CCCC)C(=O)CN1C[C@H](c2ccc3c(c2)OCO3)[C@@H](C(=O)O)[C@@H]1CCn1cccn1` [(2S,3R,4S)-4-Benzo[1,3]dioxol-5-yl-1-dibutylcarbamoylmethyl-2-(2-pyrazol-1-yl-ethyl)-pyrrolidine-3-carboxylic acid] yielded an IC50 of 28.6 µM.

Regarding `CCCCN(CCCC)C(=O)CN1C[C@H](c2ccc3c(c2)OCO3)[C@@H](C(=O)O)[C@@H]1CC/C=C(/C)CC` [(2S,3R,4S)-4-Benzo[1,3]dioxol-5-yl-1-dibutylcarbamoylmethyl-2-((Z)-4-methyl-hex-3-enyl)-pyrrolidine-3-carboxylic acid], the IC50 was found to be 7 µM.

As for `CCCCN(CCCC)C(=O)CN1C[C@H](c2ccc3c(c2)OCO3)[C@@H](C(=O)O)[C@@H]1CCN1C(=O)CCC1=O` [(2S,3R,4S)-4-Benzo[1,3]dioxol-5-yl-1-dibutylcarbamoylmethyl-2-[2-(2,5-dioxo-pyrrolidin-1-yl)-ethyl]-pyrrolidine-3-carboxylic acid], the IC50 was greater than 100 µM.

Molecule `CCCCN(CCCC)C(=O)CN1C[C@H](c2ccc3c(c2)OCO3)[C@@H](C(=O)O)[C@@H]1CC(CCC)CCC` [(2S,3R,4S)-4-Benzo[1,3]dioxol-5-yl-1-dibutylcarbamoylmethyl-2-(2-propyl-pentyl)-pyrrolidine-3-carboxylic acid] registered an IC50 of 95 µM.

For `CCCCN(CCCC)C(=O)CN1C[C@H](c2ccc3c(c2)OCO3)[C@@H](C(=O)O)[C@@H]1CCC1OC(C)C(C)O1` (stereo partly drawn) [(2S,3R,4S)-4-Benzo[1,3]dioxol-5-yl-1-dibutylcarbamoylmethyl-2-[2-(4,5-dimethyl-[1,3]dioxolan-2-yl)-ethyl]-pyrrolidine-3-carboxylic acid], the IC50 worked out at 48 µM.

Turning to `CCCCN(CCCC)C(=O)CN1C[C@H](c2ccc3c(c2)OCO3)[C@@H](C(=O)O)[C@@H]1CC(C)(C)C1OCCO1` [(2S,3R,4S)-4-Benzo[1,3]dioxol-5-yl-1-dibutylcarbamoylmethyl-2-(2-[1,3]dioxolan-2-yl-2-methyl-propyl)-pyrrolidine-3-carboxylic acid], the IC50 was greater than 100 µM.

In turn, `CCCCN(CCCC)C(=O)CN1C[C@H](c2ccc3c(c2)OCO3)[C@@H](C(=O)O)[C@@H]1CCc1ccccn1` [(2S,3R,4S)-4-Benzo[1,3]dioxol-5-yl-1-dibutylcarbamoylmethyl-2-(2-pyridin-2-yl-ethyl)-pyrrolidine-3-carboxylic acid] yielded an IC50 of 14.1 µM.

`CCCCN(CCCC)C(=O)CN1C[C@H](c2ccc3c(c2)OCO3)[C@@H](C(=O)O)[C@@H]1CCCCC(F)(F)F` [(2S,3R,4S)-4-Benzo[1,3]dioxol-5-yl-1-dibutylcarbamoylmethyl-2-(5,5,5-trifluoro-pentyl)-pyrrolidine-3-carboxylic acid] gave an IC50 of 34 µM.

In turn, `CCCCN(CCCC)C(=O)CN1C[C@H](c2ccc3c(c2)OCO3)[C@@H](C(=O)O)[C@@H]1CCc1ccco1` [(2S,3R,4S)-4-Benzo[1,3]dioxol-5-yl-1-dibutylcarbamoylmethyl-2-(2-furan-2-yl-ethyl)-pyrrolidine-3-carboxylic acid] registered an IC50 of 47 µM.

`CCCCN(CCCC)C(=O)CN1C[C@H](c2ccc3c(c2)OCO3)[C@@H](C(=O)O)[C@@H]1CCc1ccoc1` [(2S,3R,4S)-4-Benzo[1,3]dioxol-5-yl-1-dibutylcarbamoylmethyl-2-(2-furan-3-yl-ethyl)-pyrrolidine-3-carboxylic acid] had an IC50 of 26 µM.

`CCCCN(CCCC)C(=O)CN1C[C@H](c2ccc3c(c2)OCO3)[C@@H](C(=O)O)[C@@H]1CCc1nc(C)c(C)o1` [(2S,3R,4S)-4-Benzo[1,3]dioxol-5-yl-1-dibutylcarbamoylmethyl-2-[2-(4,5-dimethyl-oxazol-2-yl)-ethyl]-pyrrolidine-3-carboxylic acid] showed an IC50 of 29.7 µM.

In turn, `CCCCN(CCCC)C(=O)CN1C[C@H](c2ccc3c(c2)OCO3)[C@@H](C(=O)O)[C@@H]1CC(C)(C)CCC` [(2S,3R,4S)-4-Benzo[1,3]dioxol-5-yl-1-dibutylcarbamoylmethyl-2-(2,2-dimethyl-pentyl)-pyrrolidine-3-carboxylic acid] gave an IC50 of 62 µM.

The record behind these values is BindingDB's records for doi:10.1021/jm980217s (Abbott Laboratories, 1998).
